Data reported in US5340811A, “Isoquinoline-or quinoline-sulfonamide derivative and a pharmaceutical composition comprising the same” (priority 1990, dated 1994).
Structures can show the parent of a compound that is named as a salt. One block for each compound: values may come before it.

Assays:
trachea of a guinea pig = assay: Effect on trachea in vivo: inhibition of histamine-induced tracheal contraction (modified Konzett-Rossler method); details: for inhibition in vivo at 1 mg/kg: Cavia porcellus, iv, 0.05 h, compound 1 mg/kg via femoral vein, histamine 20 μg/kg i.v. after 3 minutes, urethane anesthesia, n=3, non-salt compounds used as hydrochloride; for suppression of histamine-induced bronchial contraction: contraction induced by intravenous administration of 1 mg/kg of histamine (as printed in text)
Text: According to a modified method of Konzett-Rossler method [see J. Martinez et al, Bronchial Arterial Injections, vol. […] Urethane was intraperitoneally administered to male guinea pigs weighing 350 to 600 g (Hartley strain, Kuroda Junkei Dobutsu) in an amount of 1.5 g/kg of body weight to anesthetize the animals. Then, cannulae were inserted into the trachea and femoral vein of each animal under urethane anesthesia and fixed. […] Each of the above-mentioned compounds of the present invention was administered to guinea pigs through the femoral vein in an amount of 1 mg/kg of body weight. […] As a solvent for each compound, physiological saline was used. The number of the guinea pigs tested in each group was 3.

[1] = system: tracheal specimens excised from guinea pigs; assay: Inhibitory effect on KCl-induced contraction of tracheal specimens excised from guinea pigs; type: cell-based, guinea pig; details: Cavia porcellus; dose relaxing KCl (20 mM)-induced contraction to 50%; 37° C.; n=3; non-salt compounds used as hydrochloride; read-out: ED50 (KCl-induced contraction)
Text: According to a method in which tracheal specimens excised from guinea pigs were used (Takagi and Ozawa, "Yakubutsugaku Jikken (Experiments in Pharmacology)", pp.100-102, 1960, published by Nanzando Japan; and Fujiwara and Shibata, "Yakurigaku Kiso Jikenho (Methods of Fundamental Experiments in Pharmacology)" pp.131-134, 1982, published by Kyourin, Japan), relaxing effect of sulfonamide derivatives of the present invention on bronchial smooth muscle was examined. […] After the KCl-induced contraction became stable, each of the compounds of the present invention was dissolved in distilled water or physiological saline, and the compound solution was cumulatively added into the Magnus tube. The relaxing effect of each of the compounds of the present invention on contracted tracheal specimens was evaluated and a dose-response curve was obtained. A dose required for relaxing KCl-induced contraction to 50%, i.e., ED50 was calculated from the dose-response curve. […] The number of tracheal specimens in each group was 3.

[2] = known from literature/patents; cited from earlier work
[3] = known from literature/patents; cited from earlier work; remark: listed apart in the source
[4] = system: tracheal specimens excised from guinea pigs; assay: Inhibitory effect on PGF2α-induced contraction of tracheal specimens excised from guinea pigs; type: cell-based, guinea pig; details: Cavia porcellus; dose relaxing PGF2α (final 1 μm)-induced contraction to 50%; n=3; non-salt compounds used as hydrochloride; read-out: PGF2α-induced contraction ED50 (Table 18)
Experimental: Tracheal specimens excised from male guinea pigs weighing 350 to 500 g (Hartley strain, Kuroda Junkei Dobutsu) were contracted in substantially the same manner as in Application Example 1 except that PGF2α (final concentration: 1 μm) was used instead of KCl. After the contraction of the tracheal specimens became stable, each of the compounds (hydrochloride) of the present invention was dissolved in distilled water or physiological saline, and the compound solution was cumulatively added into the Magnus tube in the same manner as in Application Example 1. The relaxing effect of each of the compounds of the present invention on the contracted specimens was evaluated and a dose-response curve was obtained. The dose required for relaxing PGF2α-induced contraction to 50%, i.e., ED50 was calculated form the dose-response curve. […] For comparison, the same procedure as described above was repeated except that aminophylline, comparative compound (1) and comparative compound (2) were individually used instead of the compound of the present invention, to obtain an ED50. The number of specimens in each group was 3.

Structure (SMILES): O=S(=O)(NCCN1CCN(Cc2ccc3c(c2)OCO3)CC1)c1cccc2cnccc12 [(30), 1-(5-isoquinolinesulfonylaminoethyl)-4-(3,4-methylenedioxybenzyl)piperazine]
inhibition in vivo at 1 mg/kg (trachea of a guinea pig): 31%

EC50 [1]: 18 µM
Structure (SMILES): O=S(=O)(NCCN1CCCN(Cc2ccc3c(c2)OCO3)CC1)c1cccc2c(O)nccc12 [(35), hydrochloride]

EC50 [1]: 27 µM
Structure (SMILES): O=S(=O)(NCCN1CCNCC1)c1cccc2c(O)nccc12 [(32), 1-(1-hydroxy-5-isoquinolinesulfonylaminoethyl) piperazine hydrochloride]

Structure (SMILES): O=S(=O)(NCCN1CCCN(Cc2ccc3c(c2)OCO3)CC1)c1ccc(Cl)c2ncccc12 [(38), 1-(8-chloro-5-quinolinesulfonylaminoethyl)-4-(3,4-methylenedioxybenzyl)homopiperazine]
inhibition in vivo at 1 mg/kg (trachea of a guinea pig): 45% | suppression of histamine-induced bronchial contraction (trachea of a guinea pig): 45%

Structure (SMILES): NC1CCCN(S(=O)(=O)c2cccc3cnccc23)C1 (stereo not shown) [1-(5-isoquinolinesulfonyl)-3-aminopiperidine]
vasodilating activity [2]: vasodiletic activity | bronchodilating activity [3]: bronchodilating activity

Structure (SMILES): CCCCCCN(CCN)S(=O)(=O)c1cccc2cnccc12 [N-(2-aminoethyl)-N-hexyl-5-isoquinolinesulfonamide]
vasodilating activity [2]: vasodiletic activity | bronchodilating activity [3]: bronchodilating activity

Structure (SMILES): Cn1c(=O)c2[nH]cnc2n(C)c1=O [Aminophylline, aminophylline]
suppression of histamine-induced bronchial contraction (trachea of a guinea pig): 7% | EC50 [4]: ≥ 200 µM

Structure (SMILES): Cl.NC1CCCN(S(=O)(=O)c2cccc3cnccc23)C1 (stereo not shown) [Comparative compound (2), 1-(5-isoquinolinesulfonyl)-3-aminopiperidine hydrochloride]
suppression of histamine-induced bronchial contraction (trachea of a guinea pig): 12%

Structure (SMILES): N=C(N)NCCNS(=O)(=O)c1cccc2cnccc12 [N-(2-guanidinoethyl)-5-isoquinolinesulfonamide]
vasodilating activity [2]: vasodiletic activity | bronchodilating activity [3]: bronchodilating activity

EC50 [1]: 24 µM
Structure (SMILES): O=S(=O)(NCCN1CCCNCC1)c1cccc2c(O)nccc12 [(33), 1-(1-hydroxy-5-isoquinolinesulfonylaminoethyl) homopiperazine hydrochloride]

Structure (SMILES): O=S(=O)(NCCN1CCCNCC1)c1ccc(Cl)c2ncccc12 [(36), 1-(8-chloro-5-quinolinesulfonylaminoethyl)homopiperazine]
inhibition in vivo at 1 mg/kg (trachea of a guinea pig): 22%

Structure (SMILES): O=S(=O)(NCCNCc1ccc2c(c1)OCO2)c1cccc2cnccc12 [(3), N-[2(3,4-methylenedioxybenzylamino)ethyl]-5-isoquinolinesulfonamide]
suppression of histamine-induced bronchial contraction (trachea of a guinea pig): 36%

Structure (SMILES): CCCCCCN(CCN)S(=O)(=O)c1cccc2cnccc12.Cl [Comparative compound (1), N-(2-aminoethyl)-N-hexyl-5-isoquinolinesulfonamide hydrochloride]
suppression of histamine-induced bronchial contraction (trachea of a guinea pig): 9%

Structure (SMILES): O=S(=O)(NCCN1CCCN(Cc2ccc3c(c2)OCO3)CC1)c1cccc2cnccc12 [(31), 1-(5-isoquinolinesulfonylaminoethyl)-4-(3,4-methylenedioxybenzyl)homopiperazine]
inhibition in vivo at 1 mg/kg (trachea of a guinea pig): 35%
